Each structure is given as a SMILES string. Structures can show the parent of a compound that is named as a salt. Some results are limits rather than exact numbers.

The assay addresses T1, ZAP-70 (Homo sapiens, UniProt P43403).
T1 construct: endogenous in cells; host or cells: cell lysate
T1 sequence (P43403 1-619): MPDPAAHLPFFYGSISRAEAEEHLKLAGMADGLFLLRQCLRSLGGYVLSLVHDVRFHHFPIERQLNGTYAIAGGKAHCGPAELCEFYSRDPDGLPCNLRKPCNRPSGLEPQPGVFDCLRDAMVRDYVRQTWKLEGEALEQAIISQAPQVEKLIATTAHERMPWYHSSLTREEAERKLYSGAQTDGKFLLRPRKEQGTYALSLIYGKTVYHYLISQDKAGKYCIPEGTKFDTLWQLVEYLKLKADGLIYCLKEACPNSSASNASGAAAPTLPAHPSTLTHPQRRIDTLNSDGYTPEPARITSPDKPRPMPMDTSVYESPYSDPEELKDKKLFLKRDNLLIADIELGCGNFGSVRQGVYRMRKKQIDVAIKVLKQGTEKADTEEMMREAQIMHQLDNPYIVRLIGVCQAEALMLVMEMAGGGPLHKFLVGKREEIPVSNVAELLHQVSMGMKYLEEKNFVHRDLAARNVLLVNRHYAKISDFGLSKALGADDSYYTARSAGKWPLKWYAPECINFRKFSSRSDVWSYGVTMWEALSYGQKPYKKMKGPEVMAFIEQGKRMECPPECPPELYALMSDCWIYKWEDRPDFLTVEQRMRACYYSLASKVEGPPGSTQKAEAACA
The experiment in a line: ZAP-70 kinobeads assay. It counts as binding. Particulars: cell lysate. As for the experimental part: The compounds of the present invention as described in the previous examples can be tested in the ZAP-70 kinobeads assay as described (EP-A 1862802 and WO-A 2007/137867). Briefly, test compounds (at various concentrations) and the affinity matrix with the immobilized aminopyrido-pyrimidine ligand 24 are added to cell lysate aliquots and allowed to bind to the proteins in the lysate sample. After the incubation time the beads with captured proteins are separated from the lysate. Bound proteins are then eluted and the presence ZAP-70 is detected and quantified using a specific antibody in a dot blot procedure and the Odyssey infrared detection system.
Consider `COc1ccc(Nc2nc(Nc3ccccc3OC)ncc2Cl)c(NS(C)(=O)=O)c1` [Example 51, N-(2-(5-chloro-2-(2-methoxyphenylamino)pyrimidin-4-ylamino)-5-methoxyphenyl)methanesulfonamide hydrochloride], for which the IC50 (as a rule, the concentration needed to halve the response being measured) lay in the range of 100 to 1000 nM.

The compound `COc1ccc(Nc2nc(Nc3cc(OC)c(OC)cc3Cl)ncc2Cl)c(NS(C)(=O)=O)c1` [Example 53, N-(2-(5-chloro-2-(2-chloro-4,5-dimethoxyphenylamino)pyrimidin-4-ylamino)-5-methoxyphenyl)methanesulfonamide] came in with an IC50 of 100 to 1000 nM.

The compound `COc1ccc(OCCO)cc1Nc1ncc(Cl)c(Nc2cccc(C)c2NS(C)(=O)=O)n1` [Example 118, N-(2-(5-chloro-2-(5-(2-hydroxyethoxy)-2-methoxyphenylamino)pyrimidin-4-ylamino)-6-methylphenyl)methanesulfonamide] displayed an IC50 of 100 to 1000 nM.

As to `COc1ccc(Nc2ncc(Cl)c(Nc3ccc(OC)cc3NS(C)(=O)=O)n2)c(O)c1` [Example 41, N-(2-(5-chloro-2-(2-hydroxy-4-methoxyphenylamino)pyrimidin-4-ylamino)-5-methoxyphenyl)methanesulfonamide], the IC50 was 100 to 1000 nM.

With `COc1ccc(Nc2nc(Nc3cnc(O)cc3OC)ncc2Cl)c(NS(C)(=O)=O)c1` [Example 78, N-(2-(5-chloro-2-(6-hydroxy-4-methoxypyridin-3-ylamino)pyrimidin-4-ylamino)-5-methoxyphenyl)methanesulfonamide], the IC50 is not above 100 nM.

Take `COc1ccc(Nc2nc(Nc3cc(F)ccc3OC)ncc2Cl)c(NS(C)(=O)=O)c1` [Example 42, N-(2-(5-chloro-2-(5-fluoro-2-methoxyphenylamino)pyrimidin-4-ylamino)-5-methoxyphenyl)methanesulfonamide]: the IC50 lay in the range of 100 to 1000 nM.

`CS(=O)(=O)Nc1ccccc1Nc1nc(Nc2ccccc2Cl)ncc1Br` [Example 18, N-(2-(5-bromo-2-(2-chlorophenylamino)pyrimidin-4-ylamino)phenyl)methanesulfonamide hydrochloride] registered an IC50 of 1000 to 10000 nM.

`COc1ccc(OC)c(Nc2ncc(F)c(Nc3ccccc3NS(C)(=O)=O)n2)c1` [Example 15, N-(2-(2-(2,5-dimethoxyphenylamino)-5-fluoropyrimidin-4-ylamino)phenyl)methanesulfonamide] had an IC50 of 1000 to 10000 nM.

`COc1ccccc1Nc1ncc(F)c(Nc2ccccc2NS(C)(=O)=O)n1` [Example 8, N-(2-(5-fluoro-2-(2-methoxyphenylamino)pyrimidin-4-ylamino)phenyl)methanesulfonamide] yielded an IC50 of 1000 to 10000 nM.

The compound `COc1ccc(Nc2nc(Nc3cccc(OC)c3OC)ncc2Cl)c(NS(C)(=O)=O)c1` [Example 44, N-(2-(5-chloro-2-(2,3-dimethoxyphenylamino)pyrimidin-4-ylamino)-5-methoxyphenyl)methanesulfonamide] registered an IC50 of 100 to 1000 nM.

Turning to `COc1ccc(Nc2nc(Nc3ccc(F)cc3C)ncc2Cl)c(NS(C)(=O)=O)c1` [Example 45, N-(2-(5-chloro-2-(4-fluoro-2-methylphenylamino)pyrimidin-4-ylamino)-5-methoxyphenyl)methanesulfonamide], the IC50 is 100 to 1000 nM.

The compound `COc1ccc(OCCO)cc1Nc1ncc(Cl)c(Nc2cccc(OC)c2NS(C)(=O)=O)n1` [Example 119, N-(2-(5-chloro-2-(5-(2-hydroxyethoxy)-2-methoxyphenylamino)pyrimidin-4-ylamino)-6-methoxyphenyl)methanesulfonamide] gave an IC50 of 100 to 1000 nM.

Compound `COc1ccc(Nc2nc(Nc3ccc(F)cc3OC)ncc2Cl)c(NS(C)(=O)=O)c1` [Example 43, N-(2-(5-chloro-2-(4-fluoro-2-methoxyphenylamino)pyrimidin-4-ylamino)-5-methoxyphenyl)methanesulfonamide] came in with an IC50 of 100 to 1000 nM.

`COc1ccc(Nc2nc(Nc3cc(OC)cc(CO)c3OC)ncc2Cl)c(NS(C)(=O)=O)c1` [Example 96, N-(2-((5-chloro-2-((3-(hydroxymethyl)-2,5-dimethoxyphenyl)amino)pyrimidin-4-yl)amino)-5-methoxyphenyl)methanesulfonamide] had a 50% inhibitory concentration (IC50) of 100 to 1000 nM.

Consider `COc1ccc(Nc2nc(Nc3cc(OC)ccc3OC)ncc2F)c(NS(C)(=O)=O)c1` [Example 27, N-(2-(2-(2,5-dimethoxyphenylamino)-5-fluoropyrimidin-4-ylamino)-5-methoxyphenyl)methanesulfonamide], for which the half-inhibitory concentration (IC50) fell in the range of 1000 to 10000 nM.

`COc1ccc(OCCO)cc1Nc1ncc(Cl)c(Nc2ccccc2NS(C)(=O)=O)n1` [Example 109, N-(2-(5-chloro-2-(5-(2-hydroxyethoxy)-2-methoxyphenylamino)pyrimidin-4-ylamino)phenyl)methanesulfonamide] displayed a half-maximal inhibitory concentration (IC50) of 100 to 1000 nM.

In the case of `COc1ccc(Nc2nc(Nc3cc(C)ccc3F)ncc2Cl)c(NS(C)(=O)=O)c1` [Example 49, N-(2-(5-chloro-2-(2-fluoro-5-methylphenylamino)pyrimidin-4-ylamino)-5-methoxyphenyl)methanesulfonamide], the IC50 is 100 to 1000 nM.

As to `COc1ccc(Nc2nc(Nc3cc(OC)ccc3OC)ncc2Cl)c(NS(C)(=O)=O)c1` [Example 22, N-(2-(5-chloro-2-(2,5-dimethoxyphenylamino)pyrimidin-4-ylamino)-5-methoxyphenyl)methanesulfonamide], the IC50 lay in the range of 100 to 1000 nM.

For `COc1cccc(Nc2ncc(Br)c(Nc3ccccc3NS(C)(=O)=O)n2)c1OC` [Example 9, N-(2-(5-bromo-2-(2,3-dimethoxyphenylamino)pyrimidin-4-ylamino)phenyl)methanesulfonamide], the IC50 fell in the range of 1000 to 10000 nM.

`COc1ccc(Nc2nc(Nc3cc(OCCO)ccc3OC)ncc2Br)c(NS(C)(=O)=O)c1` [Example 117, N-(2-((5-bromo-2-((5-(2-hydroxyethoxy)-2-methoxyphenyl)amino)pyrimidin-4-yl)amino)-5-methoxyphenyl)methanesulfonamide]: the IC50 was not above 100 nM.

For `COc1ccc(Nc2ncc(Br)c(Nc3ccccc3NS(C)(=O)=O)n2)c(OC)c1` [Example 26, N-(2-(5-bromo-2-(2,4-dimethoxyphenylamino)pyrimidin-4-ylamino)phenyl)methanesulfonamide], the IC50 was 100 to 1000 nM.

`CS(=O)(=O)Nc1ccccc1Nc1nc(Nc2cc(F)ccc2F)ncc1F` [Example 10, N-(2-(2-(2,5-difluorophenylamino)-5-fluoropyrimidin-4-ylamino)phenyl)methanesulfonamide] registered an IC50 of 1000 to 10000 nM.

As for `COc1ccc(Nc2nc(Nc3cccc(C)c3C)ncc2Cl)c(NS(C)(=O)=O)c1` [Example 52, N-(2-(5-chloro-2-(2,3-dimethylphenylamino)pyrimidin-4-ylamino)-5-methoxyphenyl)methanesulfonamide], the IC50 lay in the range of 100 to 1000 nM.

The compound `COc1ccc(Nc2nc(Nc3cccc(OC)c3C)ncc2Cl)c(NS(C)(=O)=O)c1` [Example 54, N-(2-(5-chloro-2-(3-methoxy-2-methylphenylamino)pyrimidin-4-ylamino)-5-methoxyphenyl)methanesulfonamide] displayed a half-maximal inhibitory concentration (IC50) of 100 to 1000 nM.

In the case of `COc1ccc(Nc2nc(Nc3cc(OCC(C)(C)O)ccc3OC)ncc2Cl)c(NS(C)(=O)=O)c1` [Example 104, N-(2-((5-chloro-2-((5-(2-hydroxy-2-methylpropoxy)-2-methoxyphenyl)amino)pyrimidin-4-yl)amino)-5-methoxyphenyl)methanesulfonamide], the IC50 lay within 1000 to 10000 nM.

For the compound `COc1ccc(OC)c(Nc2ncc(Br)c(Nc3ccccc3NS(C)(=O)=O)n2)c1` [Example 7, N-(2-(5-bromo-2-(2,5-dimethoxyphenylamino)pyrimidin-4-ylamino)phenyl)methanesulfonamide], the IC50 was in the range of 100 to 1000 nM.

`COc1ccc(Nc2nc(Nc3ccccc3F)ncc2Cl)c(NS(C)(=O)=O)c1` [Example 48, N-(2-(5-chloro-2-(2-fluorophenylamino)pyrimidin-4-ylamino)-5-methoxyphenyl)methanesulfonamide] had an IC50 of 100 to 1000 nM.

Compound `CS(=O)(=O)Nc1ccccc1Nc1nc(Nc2ccccc2O)ncc1Br` [Example 20, N-(2-(5-bromo-2-(2-hydroxyphenylamino)pyrimidin-4-ylamino)phenyl)methanesulfonamide hydrochloride] registered an IC50 of 100 to 1000 nM.

Regarding `COc1ccccc1Nc1ncc(Br)c(Nc2ccccc2NS(C)(=O)=O)n1` [Example 21, N-(2-(5-bromo-2-(2-methoxyphenylamino)pyrimidin-4-ylamino)phenyl)methanesulfonamide hydrochloride], the 50% inhibitory concentration (IC50) is 100 to 1000 nM.

Regarding `COc1ccc(Nc2nc(Nc3cc(F)c(OC)cc3OC)ncc2Cl)c(NS(C)(=O)=O)c1` [Example 38, N-(2-(5-chloro-2-(5-fluoro-2,4-dimethoxyphenylamino)pyrimidin-4-ylamino)-5-methoxyphenyl)methanesulfonamide hydrochloride], the IC50 is 100 to 1000 nM.

For the origin of these results see US20120142667A1, “PYRIMIDINE DERIVATIVES AS ZAP-70 INHIBITORS” (priority 2009, published 2012).
